This note sets out measurements from US20240327364A1, “THERAPEUTIC TARGETING OF GPR68 TO INDUCE FERROPTOSIS” (University Of Maryland, Baltimore, priority 2023, published 2024).

Data set [1] deals with U87 glioblastoma cells. The data set is described as follows: Acid-induced calcium flux in U87 cells. To be noted: medium shifted from pH 7.8 to 6.4. Type of data set: cell-based, human. An excerpt:
GPR68 is known to signal through Gq which results in a calcium flux out of the Endoplasmic reticulum. U87 glioblastoma cells were stained, using a calcium-sensitive vital dye Fluo-8, and stimulated with acidification of the media to pH6.4. The cells respond to the acidification with a burst of calcium release, this is inhibited by OGM2.
To determine if GBM cells respond to their own acidic extracellular milieu as a form of autocrine signaling, calcium release in response to acidification was measured. GPR68 is known to couple to the Gq subunit, which acts to release calcium from the ER in a PLC dependent pathway. The medium was shifted from pH 7.8 to 6.4, which triggered a rapid and robust calcium flux, as measured by the fluorescence intensity of calcium-sensitive dye Cal520-AM. This calcium flux was blocked by OGM2 and PLC inhibitor U73122. FIG. 50A, FIG. 50B, FIG. 50C and FIG. 50D.
In general terms: Calcium flux is commonly read through the fluorescence of an indicator in the cells.

For data set [2], the system named is MeWo. Briefly: Scratch assay. Type of data set: cell-based, human. To be noted: 20 hours, OGM2 5 uM. As to the method:
(§1) Since there are numerous parallels are found between neural crest cells and cancer during migration, we examined whether OGM could inhibit the migration of cells in human melanoma cell lines (Oppitz et al., 2007; Schriek et al., 2005, Sinnberg et al., 2018). […] A2058. MeWo and WM115 cells were grown to confluence and a stripe of cells were denuded with a p200 pipette tip “scratch” and rinsed with PBS. Cells were treated with OGM or DMSO and incubated in low serum media. Imaging was done at 30 minutes after “scratch” and then 20 hours afterwards. Areas were then measured and normalized to the initial area.

In data set [3] the test system is WM115. The data set is described as follows: Scratch assay. Type of data set: cell-based, human. To be noted: 20 hours, OGM2 5 uM. As for the experimental part: as §1
Data set [4] relates to A2058. The data set is described as follows: Scratch assay. Type of data set: cell-based, human. To be noted: 20 hours, OGM2 5 uM.
Data set [5] concerns the target T1, GPR68/OGR1 (Homo sapiens, UniProt Q15743).
T1 construct: host or cells: Chem-1 (CHEM1-OGR1) cells
The data set is described as follows: CHEM1-OGR1 cells Fluo-8 calcium assay, acidified media pH 6.4. Type of data set: cell-based. Conditions: concentration causing 50% effective inhibition of calcium response to pH 6.4; read-out: EC50. As to the method: Briefly, the methods were: On the day before the assay 20,000 cells per well of CHEM1-OGR1 cells were plated in 10% DMEM containing 10% FBS and 1% Pen/Strep into a 96 well plate. After 24 hours media was removed and cells were stained with 80 μL Fluo-8 calcium indicator dye according to manufacturer's protocol. After staining cells were treated with 20 uL of 4× concentration of test compounds. Using kinetic imaging in the Lionheart HCS fluorescence intensity was continuously measure at 10 frames per second, for 5 seconds before 100 μL of acidified media was added to the well resulting in a pH of 6.4. A ratio of fluorescence intensities prior to addition and at peak were calculated and averaged. The resulting data were platted and using a 4 parameter logistic regression EC50 (the concentration causing 50% effective inhibition) for each test compound was determined.

In data set [6] the test system is LPS-induced ALI. The data set is described as follows: LPS-induced acute lung injury. It is filed as in vivo, mice. An excerpt:
PMN (polymorphonuclear neutrophils).

Data set [7] has as its system U87 spheroids. The data set is described as follows: GBM spheroid assay. Type of data set: cell-based, human. As to the method:
One thousand cells per well were plated in an ultra-low attachment, round-bottomed, 96-well plate, and spheroids were allowed to form for 3 days. Wells were then exposed to concentrations of vehicle, OGM2 or TMZ or a combination for 3 days. Spheroids were imaged in brightfield at 10× using z-stacks that were collapsed into z-projections in the Gen5 software using the LionheartFx (BioTek™). Automated measurements of the spheroid area were obtained using Gen5 software.
Tumor spheroid cultures are a more physiological model of tumor growth than typical 2D cell culture. Temozolomide sensitive U87 (FIG. 20A) and Temozolomide insensitive U138 (FIG. 20B) glioblastoma cell lines were plated in low attachment round bottom 96-well plates and allowed to form tumor spheroids for 3 days (T0). At T0, spheroids were imaged using Lionheart™ (HCS) High-Content Imaging Systems (Biotek™) and then were exposed to increasing doses of either Temozolomide or OGM2. After 5 days of treatment the spheroids were imaged again (T5). The size (area) of the spheroids after 5 days of treatment was quantified, and the average size of the spheroids at TO is depicted in red.
A GPR68-positive allosteric modulator, Ogerin, was tested. U87glioblastoma cells were plated in low attachment round bottom 96-well plates and allowed to form tumor spheroids for 3 days (TO). These spheroids were treated with Vehicle (DMSO), 10 μM/20 μM Ogerin or 10 μM/20 μM Ogremorphin-2 (OGM2). The spheroids were placed in the Lionheart™ HCS equipped with environmental control (5% CO2 at 37° C.) and imaged every 12 hours.
Spheroids were formed over 3 days using low attachment 96-well round bottom plates and then treated with DMSO or OGM2 in either pH 8 buffered media or pH 6.2 buffered media and grown for 3 days. The size (area) of spheroids was measured in relative area units. […] This increase in growth was abrogated by OGM2.

The subject of data set [8] is endothelial cell (EC). The data set is described as follows: Acidification-induced endothelial cell dysfunction. It is filed as cell-based. Conditions: OGM2 3 uM; Ogerin 2 uM. As to the method:
FIG. 34A through FIG. 34C: GPR68 plays a central role in acidification-induced endothelial cell (EC) dysfunction in vitro, and OGM2 abrogates EC dysfunction. […] These effects were abolished by OGM2 (OGM) at 3 uM and augmented by GPR68 positive allosteric modulator Ogerin (Og) at 2 uM. *P<0.05; Mann-Whitney test, n=5. FIG. 34C: Medium acidification reduced transendothelial resistance (TER), indicative of disruption of EC barrier function.

Data set [9] deals with HEK293. It is filed as cell-based. To be noted: human. An excerpt:
FIG. 59A through FIG. 59D: OGM2 causes specific cell death in glioblastoma cells.
Thus, in contrast to erastin, OGM2 induces ferroptosis selectively in cancer cells.

T1 sequence (Q15743 whole entry): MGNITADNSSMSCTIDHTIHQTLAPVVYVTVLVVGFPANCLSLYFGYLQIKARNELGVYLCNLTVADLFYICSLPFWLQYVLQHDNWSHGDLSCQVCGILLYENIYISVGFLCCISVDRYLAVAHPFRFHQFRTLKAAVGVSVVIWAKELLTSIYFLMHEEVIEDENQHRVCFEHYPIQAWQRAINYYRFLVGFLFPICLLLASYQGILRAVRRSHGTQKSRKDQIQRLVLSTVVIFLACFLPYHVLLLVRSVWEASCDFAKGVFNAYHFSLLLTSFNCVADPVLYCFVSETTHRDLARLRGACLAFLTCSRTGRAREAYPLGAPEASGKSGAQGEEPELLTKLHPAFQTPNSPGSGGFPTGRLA

As to `COc1ccc2c(c1)CC[C@@H]1[C@@H]2CC[C@]2(C)[C@@H](NCCCCCCN3C(=O)C=CC3=O)CC[C@@H]12` [Compound U73122], the acid-induced calcium flux entry in data set [1] was “blocked”.
Turning to `CCN(c1nc(N)c(C(=O)NC(=N)N)nc1Cl)C(C)C` [EIPA, reference compound], the results for the migration entry in [2], in data set [3] and in data set [4] were “not”, “inhibited migration” and “inhibited migration”, respectively.
With `CCc1nn2c(C)cc(C)nc2c1Cc1ccc(-c2nnc(C3CCNCC3)o2)cc1` [NE52QQ, reference compound], in data set [1], the acid-induced calcium flux result is reported as “not significant”.
The EC50 is the concentration that produces a half-maximal response. As to `COc1ccc(C2=NNC3(S2)C(=O)Nc2ccc(OC)cc23)cc1` (centres unmarked) [OGM17], the EC50 in data set [5] worked out at 262 nM. Besides, the “inflammatory cell infiltrates in BAL” value in [6] (LPS 0.7 mg/kg intratracheally, compounds intraperitoneally) is given as “reduced inflammatory cell infiltrates in BAL”. Besides, the “reversal of markers of ALI, comparison with OGM2” value in [6] (mouse, in vivo) is given as “much more potent in reversing the markers of ALI due to LPS in vivo”.
As for `Nc1nc(NCc2ccccc2)nc(-c2ccccc2CO)n1` [Ogerin, reference compound], in data set [7], the spheroid growth rate entry is on record as “promoted U87 spheroids growth rate”. Further, the “acidic media (pH 6.5)-induced TNFα, VCAM1 and ICAM1 expression” value in [8] is recorded as “augmented”.
As to `CCOc1ccccc1-n1c(C(C)N2CCN(C(=O)COc3ccc(Cl)cc3)CC2)nc2ccccc2c1=O` (centres unmarked) [erastin, reference compound], the “HEK293 cell viability / survival” value in data set [9] is reported as “dramatically reduced HEK293 cell survival”.
